Earlier results on one compound are cited in patent US20060046961A1, “Controlled and directed local delivery of anti-inflammatory compositions” (priority 2004, published 2006).

This series has as its system PGE2 production. As to conditions: cell culture.

Molecules are shown by their SMILES.

`COc1ccc2cc(CC(=O)O)ccc2c1` [6-methoxy-2-napthylacetic acid]: the PGE2 production result was “suppress” and the local inflammation entry is recorded as “suppress”.
